Laboratory results reported in patent US11078202B2, “β-lactamase inhibitor and use thereof” (priority 2018, dated 2021).
Structures can show the parent of a compound that is named as a salt.

Key:
Format in all cases: cell-based
[1] = test system: Acinetobacter baumannii XNWB 0007; experiment: MIC assay of test compounds combined with ceftazidime (8 μg/mL); settings: ceftazidime 8 μg/mL fixed
How it was run: (§1)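 We recorded each combination MIC according to CLSI after culturing plates at 35±2 °C for 16-20 h. The inoculum consisted of colonies suspended in 0.9% NaCl (OD600 0.1-0.15) and diluted 300-fold with 1.1×CAMHB, mixed with compound dilutions and the partner β-lactam.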

[2] = test system: Klebsiella pneumoniae XNWB 0001; experiment: as above; settings: ceftazidime 8 μg/mL fixed
How it was run: as §1

[3] = test system: Klebsiella pneumoniae XNWB 0002; experiment: as above; settings: ceftazidime 8 μg/mL fixed
How it was run: as §1

[4] = test system: Klebsiella pneumoniae XNWB 0003; experiment: as above; settings: ceftazidime 8 μg/mL fixed
How it was run: as §1

[5] = test system: Klebsiella pneumoniae XNWB 0004; experiment: as above; settings: ceftazidime 8 μg/mL fixed
How it was run: as §1

[6] = test system: Klebsiella pneumoniae XNWB 0005; experiment: as above; settings: ceftazidime 8 μg/mL fixed
How it was run: as §1

[7] = test system: Klebsiella pneumoniae XNWB 0006; experiment: as above; settings: ceftazidime 8 μg/mL fixed
How it was run: as §1

[8] = test system: Pseudomonas aeruginosa XNWB 0008; experiment: as above; settings: ceftazidime 8 μg/mL fixed
How it was run: as §1

[9] = test system: Acinetobacter baumannii XNWB 0007; experiment: MIC assay of test compounds combined with imipenem (4 μg/mL); settings: imipenem 4 μg/mL fixed
How it was run: as §1

[10] = test system: Klebsiella pneumoniae XNWB 0001; experiment: as above; settings: imipenem 4 μg/mL fixed
How it was run: as §1

[11] = test system: Klebsiella pneumoniae XNWB 0002; experiment: as above; settings: imipenem 4 μg/mL fixed
How it was run: as §1

[12] = test system: Klebsiella pneumoniae XNWB 0003; experiment: as above; settings: imipenem 4 μg/mL fixed
How it was run: as §1

[13] = test system: Klebsiella pneumoniae XNWB 0004; experiment: as above; settings: imipenem 4 μg/mL fixed
How it was run: as §1

[14] = test system: Klebsiella pneumoniae XNWB 0005; experiment: as above; settings: imipenem 4 μg/mL fixed
How it was run: as §1

[15] = test system: Klebsiella pneumoniae XNWB 0006; experiment: as above; settings: imipenem 4 μg/mL fixed
How it was run: as §1

[16] = test system: Pseudomonas aeruginosa XNWB 0008; experiment: as above; settings: imipenem 4 μg/mL fixed
How it was run: as §1

[17] = test system: Enterobacter aerogenes XNWB 0011; experiment: MIC assay of test compounds combined with ampicillin (8 μg/mL); settings: ampicillin 8 μg/mL fixed
Method: (§2) The bacterial strains used for the minimum inhibitory concentration (MIC) test were frozen in a −80° C. ULT freezer and thawed 2 days before use. A small amount of frozen bacterial strains were scraped using a sterile inoculating loop, streaked onto a TSA solid culture dish for inoculation, and then cultured for 20-24 h at 35±2° C. in a normal atmospheric environment.
(§3) 5-10 colonies with similar morphology were picked from the culture dish using a sterile inoculating loop and then re-streaked onto a suitable solid culture dish. Then the dish was placed into a normal incubator for culture for 20-24 h at 35±2° C.
(§4) 5-10 single bacterial colonies were picked from the solid culture dish, resuspended in 500 μL of 0.9% NaCl, and adjusted to an OD600 of 0.1-0.15 with a spectrophotometer.
(§5) The bacteria were then diluted 300-fold with 1.1×CAMHB.
(§6) Test compounds of columns A-H: having a highest final test concentration of 64 μg/mL or 32 μg/mL, 2-fold diluted.
(§7) Dilution of test compounds: All test compounds were dissolved and diluted in dimethylsulfoxide (DMSO). 170 μL of 3.2 mg/mL (50*64 μg/mL) compound was transferred to wells (A1-H1) of column 1 of a dilution master plate and then 85 μL of DMSO was transferred to wells of other columns. Each compound was diluted 2-fold in sequence (i.e., 85 μL of compound was pipetted from column 1 into column 2 and mixed uniformly, 85 μL of compound was pipetted from column 2 into column 3 and mixed uniformly, then 85 μL of compound was pipetted from column 3 into column 4 and mixed uniformly, and so on until the dilution was done in column 11).
(§8) Preparation of an additive of ampicillin: Ampicillin was dissolved in ddH2O. 30 μL of 100 μg/mL (12.5×8 μg/mL) ampicillin was transferred to columns 1-11 of an additive plate, followed by the addition of 30 μL of ddH2O to column 12.
(§9) 2 μL of each compound in the dilution master plate of the test compounds was transferred to the corresponding well of the assay plates. In the mean time, 2 μL of 100% DMSO was transferred to the compound-free wells (GC and SC wells). (1) 8 μL of imipenem in the additive plate of imipenem was transferred to the corresponding wells of the assay plates; (2) 8 μL of ceftazidime in the additive plate of ceftazidime was transferred to the corresponding wells of the assay plates; (3) 8 μL of ampicillin in the additive plate of ampicillin was transferred to the corresponding wells of the assay plates.
(§10) 90 μL of corresponding bacterial inocula were added to wells (except for SC wells) of the assay plates.
(§11) After addition, the 6 assay plates were covered by sterile covers. The mixtures in the assay plates were centrifuged by a centrifuge at 1000 rpm for 30 s, and mixed uniformly by oscillating with a microplate oscillator at 800 rpm for 1 min, and then cultured in a common incubator for 16-20 h at 35±2° C.
(§12) The minimum inhibitory concentration of each compound was recorded by reference to guidelines from the Clinical and Laboratory Standards Institute.
(§13) The minimum inhibitory concentrations of the compounds of the present invention and antibiotics (imipenem, ceftazidime, and ampicillin) against 11 strains of bacteria were tested in this study by reference to the medium microdilution method as indicated by the Clinical and Laboratory Standards Institute. The effect of the test compounds in combination with imipenem, ceftazidime, and ampicillin was also tested. Compounds were diluted two-fold in 96-well plates from the highest detection concentration of 64 μg/mL. The test compounds were tested in combination with a fixed concentration of imipenem (4 μg/mL), ceftazidime (8 μg/mL), and ampicillin (8 μg/mL). The bacterial inocula in the assay plates were resuscitated from TSA and diluted in CAMHB, while growth controls (GC wells) and sterile controls (SC wells) were set up in the assay plates. […]

[18] = test system: Escherichia coli XNWB 0009; experiment: as above; settings: ampicillin 8 μg/mL fixed
Method: as §2, §3, §4, §5, §6, §7, §8, §9, §10, §11, §12, §13

[19] = test system: Escherichia coli XNWB 0010; experiment: as above; settings: ampicillin 8 μg/mL fixed
Method: as §2, §3, §4, §5, §6, §7, §8, §9, §10, §11, §12, §13

SMILES | The minimum concentration of test compounds combined with ceftazidime (8 μg/mL) for bacteriostasis [1] | The minimum concentration of test compounds combined with ceftazidime (8 μg/mL) for bacteriostasis [2] | The minimum concentration of test compounds combined with ceftazidime (8 μg/mL) for bacteriostasis [3] | The minimum concentration of test compounds combined with ceftazidime (8 μg/mL) for bacteriostasis [4] | The minimum concentration of test compounds combined with ceftazidime (8 μg/mL) for bacteriostasis [5] | The minimum concentration of test compounds combined with ceftazidime (8 μg/mL) for bacteriostasis [6] | The minimum concentration of test compounds combined with ceftazidime (8 μg/mL) for bacteriostasis [7] | The minimum concentration of test compounds combined with ceftazidime (8 μg/mL) for bacteriostasis [8] | The minimum concentration of test compounds combined with imipenem (4 μg/mL) for bacteriostasis [9] | The minimum concentration of test compounds combined with imipenem (4 μg/mL) for bacteriostasis [10] | The minimum concentration of test compounds combined with imipenem (4 μg/mL) for bacteriostasis [11] | The minimum concentration of test compounds combined with imipenem (4 μg/mL) for bacteriostasis [12] | The minimum concentration of test compounds combined with imipenem (4 μg/mL) for bacteriostasis [13] | The minimum concentration of test compounds combined with imipenem (4 μg/mL) for bacteriostasis [14] | The minimum concentration of test compounds combined with imipenem (4 μg/mL) for bacteriostasis [15] | The minimum concentration of test compounds combined with imipenem (4 μg/mL) for bacteriostasis [16] | The minimum concentration of test compounds combined with ampicillin (8 μg/mL) for bacteriostasis [17] | The minimum concentration of test compounds combined with ampicillin (8 μg/mL) for bacteriostasis [18] | The minimum concentration of test compounds combined with ampicillin (8 μg/mL) for bacteriostasis [19]
N=C(N)NCc1nnc([C@@H]2CC3(CC3)[C@@H]3CN2C(=O)N3OS(=O)(=O)O)o1 [Example 3, (1R,4S)-4-(5-(guanidinomethyl)-1,3,4-oxadiazol-2-yl)-6-oxo-5,7-diazaspiro[bicycle [3.2.1]octane-2,1′-cyclopropan]-7-yl sulfate] | C (C: 16-128 μg/mL) | B (B: 8-16 μg/mL) | A (A: <8 μg/mL) | B (B: 8-16 μg/mL) | B (B: 8-16 μg/mL) | B (B: 8-16 μg/mL) | A (A: <8 μg/mL) | C (C: 16-128 μg/mL) | C (C: 16-128 μg/mL) | B (B: 8-16 μg/mL) | A (A: <8 μg/mL) | A (A: <8 μg/mL) | A (A: <8 μg/mL) | A (A: <8 μg/mL) | A (A: <8 μg/mL) | C (C: 16-128 μg/mL) | C (C: 16-128 μg/mL) | A (A: <8 μg/mL) | B (B: 8-16 μg/mL)
O=C1N2C[C@H](N1OS(=O)(=O)O)C1(CC1)C[C@H]2c1nnc(CNC2CNC2)o1 [Example 14, (1R,4S)-4-(5-((azetidin-3-ylamino)methyl)-1,3,4-oxadiazol-2-yl)-6-oxo-5,7-diazaspiro [bicyclo[3.2.1]octane-2,1′-cyclopropan]-7-yl sulfate] | C (C: 16-128 μg/mL) | A (A: <8 μg/mL) | A (A: <8 μg/mL) | B (B: 8-16 μg/mL) | B (B: 8-16 μg/mL) | B (B: 8-16 μg/mL) | A (A: <8 μg/mL) | C (C: 16-128 μg/mL) | C (C: 16-128 μg/mL) | A (A: <8 μg/mL) | A (A: <8 μg/mL) | A (A: <8 μg/mL) | A (A: <8 μg/mL) | A (A: <8 μg/mL) | A (A: <8 μg/mL) | B (B: 8-16 μg/mL) | B (B: 8-16 μg/mL) | A (A: <8 μg/mL) | 4 µg/mL
NCc1nnc([C@@H]2CC3(CC3)[C@@H]3CN2C(=O)N3OS(=O)(=O)O)o1 [Example 2, (1R,4S)-4-(5-(aminomethyl)-1,3,4-oxadiazol-2-yl)-6-oxo-5,7-diazaspiro[bicycle [3.2.1]octane-2,1′-cyclopropan]-7-yl sulfate] | C (C: 16-128 μg/mL) | A (A: <8 μg/mL) | A (A: <8 μg/mL) | A (A: <8 μg/mL) | B (B: 8-16 μg/mL) | A (A: <8 μg/mL) | A (A: <8 μg/mL) | C (C: 16-128 μg/mL) | C (C: 16-128 μg/mL) | A (A: <8 μg/mL) | A (A: <8 μg/mL) | A (A: <8 μg/mL) | A (A: <8 μg/mL) | A (A: <8 μg/mL) | A (A: <8 μg/mL) | C (C: 16-128 μg/mL) | A (A: <8 μg/mL) | A (A: <8 μg/mL) | A (A: <8 μg/mL)
